Experimental data reported in ChEMBL document CHEMBL5696441 (Nat Chem Biol, 2011).

What was measured:
[1] = target: Mitogen-activated protein kinase 14 (Homo sapiens) (UniProt Q16539); experiment: Inhibition of non-phosphorylated human N-terminal His-P38alpha overexpressed in Escherichia coli BL21 (DE3) assessed as remaining activity at 1 uM by Kinome scan method relative to control
[2] = tested on: Tyrosine-protein kinase ABL1 (Homo sapiens), P00519 [T315I]; experiment: Inhibition of ABL1 T315I mutant (unknown origin) assessed as remaining activity at 1 uM by Kinome scan method relative to control
[3] = tested on: Tyrosine-protein kinase ABL1 (Homo sapiens), P00519 [F317L]; experiment: Inhibition of ABL1 F317L mutant (unknown origin) assessed as remaining activity at 1 uM by Kinome scan method relative to control
[4] = target: T1, Tyrosine-protein kinase Tec (Homo sapiens) (UniProt P42680); experiment: Inhibition of TEC (unknown origin) assessed as remaining activity at 1 uM by Kinome scan method relative to control
T1 sequence (whole entry): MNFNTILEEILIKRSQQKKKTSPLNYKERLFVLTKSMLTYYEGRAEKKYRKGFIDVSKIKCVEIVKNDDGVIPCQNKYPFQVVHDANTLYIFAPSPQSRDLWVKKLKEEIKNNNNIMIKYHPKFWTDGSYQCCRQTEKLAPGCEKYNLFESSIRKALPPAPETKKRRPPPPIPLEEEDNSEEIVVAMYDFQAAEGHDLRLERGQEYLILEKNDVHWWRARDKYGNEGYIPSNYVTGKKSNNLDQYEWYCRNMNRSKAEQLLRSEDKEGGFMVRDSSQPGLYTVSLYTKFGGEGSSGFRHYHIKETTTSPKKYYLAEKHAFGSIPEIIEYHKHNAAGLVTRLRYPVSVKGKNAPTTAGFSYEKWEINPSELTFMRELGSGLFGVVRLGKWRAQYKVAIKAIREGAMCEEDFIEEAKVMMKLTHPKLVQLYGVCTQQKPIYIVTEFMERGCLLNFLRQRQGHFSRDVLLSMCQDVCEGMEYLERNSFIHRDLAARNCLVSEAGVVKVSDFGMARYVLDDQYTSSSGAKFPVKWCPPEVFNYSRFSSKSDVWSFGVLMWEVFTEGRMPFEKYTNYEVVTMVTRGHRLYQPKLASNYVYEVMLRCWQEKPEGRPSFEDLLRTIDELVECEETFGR

[5] = target: T2, Serine/threonine-protein kinase Chk1 (Homo sapiens) (UniProt O14757); experiment: Inhibition of CHEK1 (unknown origin) assessed as remaining activity at 1 uM by Kinome scan method relative to control
T2 sequence (whole entry): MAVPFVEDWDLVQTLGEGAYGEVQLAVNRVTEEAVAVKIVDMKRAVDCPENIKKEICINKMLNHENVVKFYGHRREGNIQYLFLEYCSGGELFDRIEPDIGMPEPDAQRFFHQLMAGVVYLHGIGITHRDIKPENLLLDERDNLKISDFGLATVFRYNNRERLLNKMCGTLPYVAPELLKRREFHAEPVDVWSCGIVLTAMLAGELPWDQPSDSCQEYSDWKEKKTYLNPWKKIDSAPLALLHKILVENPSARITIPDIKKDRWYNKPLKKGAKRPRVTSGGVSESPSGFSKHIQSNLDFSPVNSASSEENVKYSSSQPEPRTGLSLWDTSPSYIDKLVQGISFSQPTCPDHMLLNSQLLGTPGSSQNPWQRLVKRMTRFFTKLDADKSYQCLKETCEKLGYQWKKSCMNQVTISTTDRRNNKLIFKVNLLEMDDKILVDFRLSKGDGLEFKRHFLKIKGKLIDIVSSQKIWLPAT

[6] = target: Mitogen-activated protein kinase kinase kinase 10 (Homo sapiens) (UniProt Q02779); experiment: Inhibition of MLK2 (unknown origin) assessed as remaining activity at 1 uM by Kinome scan method relative to control
Chain of Mitogen-activated protein kinase kinase kinase 10 (Homo sapiens) (Q02779 whole entry, looked up): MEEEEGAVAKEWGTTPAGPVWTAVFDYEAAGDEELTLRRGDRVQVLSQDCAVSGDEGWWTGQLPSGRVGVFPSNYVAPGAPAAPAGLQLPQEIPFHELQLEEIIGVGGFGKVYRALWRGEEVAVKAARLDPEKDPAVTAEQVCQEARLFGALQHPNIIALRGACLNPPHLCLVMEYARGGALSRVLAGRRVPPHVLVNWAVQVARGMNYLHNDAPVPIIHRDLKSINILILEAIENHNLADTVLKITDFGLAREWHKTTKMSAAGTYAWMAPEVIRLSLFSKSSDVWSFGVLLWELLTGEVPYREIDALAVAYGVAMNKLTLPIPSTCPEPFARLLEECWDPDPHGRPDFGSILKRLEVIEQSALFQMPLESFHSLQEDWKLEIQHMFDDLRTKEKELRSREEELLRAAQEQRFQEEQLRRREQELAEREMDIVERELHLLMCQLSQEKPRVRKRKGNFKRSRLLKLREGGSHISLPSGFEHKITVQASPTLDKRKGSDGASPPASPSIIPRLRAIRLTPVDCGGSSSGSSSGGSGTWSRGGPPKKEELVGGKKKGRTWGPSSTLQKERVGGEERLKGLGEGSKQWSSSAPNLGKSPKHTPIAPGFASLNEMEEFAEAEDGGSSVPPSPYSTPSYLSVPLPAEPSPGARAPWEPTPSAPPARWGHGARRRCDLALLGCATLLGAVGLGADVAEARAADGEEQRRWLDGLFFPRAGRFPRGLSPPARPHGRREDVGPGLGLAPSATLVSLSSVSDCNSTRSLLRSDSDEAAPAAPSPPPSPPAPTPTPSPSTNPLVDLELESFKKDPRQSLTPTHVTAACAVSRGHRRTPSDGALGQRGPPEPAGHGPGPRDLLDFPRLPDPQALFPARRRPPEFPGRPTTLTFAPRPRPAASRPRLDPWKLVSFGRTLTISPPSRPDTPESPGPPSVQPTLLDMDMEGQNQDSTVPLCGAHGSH

[7] = target: Myosin light chain kinase family member 4 (Homo sapiens) (UniProt Q86YV6); experiment: Inhibition of SgK085 (unknown origin) assessed as remaining activity at 1 uM by Kinome scan method relative to control
Chain of Myosin light chain kinase family member 4 (Homo sapiens) (Q86YV6 whole entry): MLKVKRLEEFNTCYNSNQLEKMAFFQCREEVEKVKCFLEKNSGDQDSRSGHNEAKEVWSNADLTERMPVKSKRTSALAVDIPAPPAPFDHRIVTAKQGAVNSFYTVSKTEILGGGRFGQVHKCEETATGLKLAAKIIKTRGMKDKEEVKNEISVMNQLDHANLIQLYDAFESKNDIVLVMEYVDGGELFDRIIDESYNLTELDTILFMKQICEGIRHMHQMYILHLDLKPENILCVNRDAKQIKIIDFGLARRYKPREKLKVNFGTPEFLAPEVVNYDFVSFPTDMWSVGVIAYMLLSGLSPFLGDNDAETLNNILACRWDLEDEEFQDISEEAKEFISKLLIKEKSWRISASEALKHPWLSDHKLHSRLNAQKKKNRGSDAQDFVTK

[8] = target: Serine/threonine-protein kinase N2 (Homo sapiens) (UniProt Q16513); experiment: Inhibition of PKN2 (unknown origin) assessed as remaining activity at 1 uM by Kinome scan method relative to control
Chain of Serine/threonine-protein kinase N2 (Homo sapiens) (Q16513 whole entry, looked up, the tested form may be a part): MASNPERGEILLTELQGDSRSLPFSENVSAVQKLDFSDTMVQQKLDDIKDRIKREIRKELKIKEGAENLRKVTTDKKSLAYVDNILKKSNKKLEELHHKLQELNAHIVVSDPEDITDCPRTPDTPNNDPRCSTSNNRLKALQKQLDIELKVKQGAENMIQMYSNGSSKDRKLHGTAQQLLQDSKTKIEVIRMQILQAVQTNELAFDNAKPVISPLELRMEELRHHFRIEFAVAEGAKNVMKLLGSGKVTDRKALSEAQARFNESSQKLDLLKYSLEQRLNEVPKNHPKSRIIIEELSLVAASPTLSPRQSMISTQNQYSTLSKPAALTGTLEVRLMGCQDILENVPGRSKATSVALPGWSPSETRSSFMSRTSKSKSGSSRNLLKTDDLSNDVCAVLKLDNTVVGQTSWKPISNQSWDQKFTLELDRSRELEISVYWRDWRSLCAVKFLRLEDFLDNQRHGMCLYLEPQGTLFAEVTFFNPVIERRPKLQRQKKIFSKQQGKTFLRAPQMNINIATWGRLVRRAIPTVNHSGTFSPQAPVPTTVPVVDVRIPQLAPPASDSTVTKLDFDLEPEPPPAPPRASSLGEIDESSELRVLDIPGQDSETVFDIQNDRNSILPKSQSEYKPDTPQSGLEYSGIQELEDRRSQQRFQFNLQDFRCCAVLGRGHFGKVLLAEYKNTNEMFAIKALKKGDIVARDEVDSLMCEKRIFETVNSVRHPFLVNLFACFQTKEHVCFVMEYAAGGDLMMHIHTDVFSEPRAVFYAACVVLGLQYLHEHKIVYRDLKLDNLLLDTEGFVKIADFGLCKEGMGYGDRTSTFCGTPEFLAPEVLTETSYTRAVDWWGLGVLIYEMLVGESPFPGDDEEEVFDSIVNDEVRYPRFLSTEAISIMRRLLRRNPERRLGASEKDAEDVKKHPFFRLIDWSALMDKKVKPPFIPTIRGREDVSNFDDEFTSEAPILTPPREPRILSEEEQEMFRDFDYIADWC

[9] = target: Phosphatidylinositol 3-kinase C2 domain-containing subunit gamma (Homo sapiens) (UniProt O75747); experiment: Inhibition of PIK3C2G (unknown origin) assessed as remaining activity at 1 uM by Kinome scan method relative to control
Chain of Phosphatidylinositol 3-kinase C2 domain-containing subunit gamma (Homo sapiens) (O75747 whole entry, the tested form may be a part): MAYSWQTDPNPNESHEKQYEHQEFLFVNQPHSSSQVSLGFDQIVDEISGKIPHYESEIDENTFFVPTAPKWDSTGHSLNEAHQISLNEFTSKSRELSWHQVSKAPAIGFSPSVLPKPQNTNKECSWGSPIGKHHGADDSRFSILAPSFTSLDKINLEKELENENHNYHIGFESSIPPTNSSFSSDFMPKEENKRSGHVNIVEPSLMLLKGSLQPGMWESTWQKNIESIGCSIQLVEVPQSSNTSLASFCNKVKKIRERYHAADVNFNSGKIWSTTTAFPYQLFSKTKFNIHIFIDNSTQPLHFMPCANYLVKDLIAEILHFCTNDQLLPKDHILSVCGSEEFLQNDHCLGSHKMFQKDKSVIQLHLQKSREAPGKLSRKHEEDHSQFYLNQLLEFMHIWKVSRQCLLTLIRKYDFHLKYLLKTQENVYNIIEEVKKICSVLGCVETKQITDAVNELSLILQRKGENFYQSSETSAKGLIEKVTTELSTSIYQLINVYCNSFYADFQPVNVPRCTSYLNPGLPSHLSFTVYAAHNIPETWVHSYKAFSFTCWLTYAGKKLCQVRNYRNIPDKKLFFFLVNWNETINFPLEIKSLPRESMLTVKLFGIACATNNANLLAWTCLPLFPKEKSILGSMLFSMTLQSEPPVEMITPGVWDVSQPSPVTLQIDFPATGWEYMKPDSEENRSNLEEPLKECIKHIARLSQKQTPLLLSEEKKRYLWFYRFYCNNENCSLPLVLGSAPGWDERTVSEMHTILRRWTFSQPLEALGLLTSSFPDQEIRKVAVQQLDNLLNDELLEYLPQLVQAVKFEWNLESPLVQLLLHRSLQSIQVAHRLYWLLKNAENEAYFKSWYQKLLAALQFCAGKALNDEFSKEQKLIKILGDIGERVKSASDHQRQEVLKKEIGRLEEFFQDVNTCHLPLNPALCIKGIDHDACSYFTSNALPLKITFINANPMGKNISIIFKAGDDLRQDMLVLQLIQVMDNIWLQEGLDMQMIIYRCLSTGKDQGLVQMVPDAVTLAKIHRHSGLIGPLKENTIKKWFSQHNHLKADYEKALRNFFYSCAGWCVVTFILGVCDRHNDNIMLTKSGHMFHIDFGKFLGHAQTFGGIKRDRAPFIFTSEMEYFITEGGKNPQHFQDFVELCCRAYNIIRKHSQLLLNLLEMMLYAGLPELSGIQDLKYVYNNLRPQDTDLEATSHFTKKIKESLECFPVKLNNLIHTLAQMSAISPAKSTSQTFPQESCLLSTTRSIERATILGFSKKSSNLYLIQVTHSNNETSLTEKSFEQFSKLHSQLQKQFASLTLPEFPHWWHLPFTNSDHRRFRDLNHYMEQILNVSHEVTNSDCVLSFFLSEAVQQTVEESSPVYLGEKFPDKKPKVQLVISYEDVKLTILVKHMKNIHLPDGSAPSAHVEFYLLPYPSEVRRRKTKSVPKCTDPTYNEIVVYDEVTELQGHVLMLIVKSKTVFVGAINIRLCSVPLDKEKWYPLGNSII

[10] = target: T3, Tyrosine-protein kinase ITK/TSK (Homo sapiens) (UniProt Q08881); experiment: Inhibition of ITK (unknown origin) assessed as remaining activity at 1 uM by Kinome scan method relative to control
T3 sequence (whole entry): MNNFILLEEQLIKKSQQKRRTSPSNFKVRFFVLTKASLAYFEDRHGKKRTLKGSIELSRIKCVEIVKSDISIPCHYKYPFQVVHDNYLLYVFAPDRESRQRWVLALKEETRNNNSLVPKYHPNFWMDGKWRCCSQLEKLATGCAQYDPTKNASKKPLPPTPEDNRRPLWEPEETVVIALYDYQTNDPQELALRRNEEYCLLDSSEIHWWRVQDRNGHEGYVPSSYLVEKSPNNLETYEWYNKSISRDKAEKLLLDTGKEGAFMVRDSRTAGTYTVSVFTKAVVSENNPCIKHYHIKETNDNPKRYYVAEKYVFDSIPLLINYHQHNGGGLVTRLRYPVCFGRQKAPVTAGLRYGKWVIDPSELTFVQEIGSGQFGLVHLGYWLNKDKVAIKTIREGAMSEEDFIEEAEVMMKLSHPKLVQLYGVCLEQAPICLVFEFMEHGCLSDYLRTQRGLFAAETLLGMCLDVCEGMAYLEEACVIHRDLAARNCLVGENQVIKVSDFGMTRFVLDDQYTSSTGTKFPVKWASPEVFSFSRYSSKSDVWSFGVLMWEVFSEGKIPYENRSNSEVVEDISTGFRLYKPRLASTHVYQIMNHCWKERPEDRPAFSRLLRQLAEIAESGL

Chain of Mitogen-activated protein kinase 14 (Homo sapiens) (Q16539 whole entry): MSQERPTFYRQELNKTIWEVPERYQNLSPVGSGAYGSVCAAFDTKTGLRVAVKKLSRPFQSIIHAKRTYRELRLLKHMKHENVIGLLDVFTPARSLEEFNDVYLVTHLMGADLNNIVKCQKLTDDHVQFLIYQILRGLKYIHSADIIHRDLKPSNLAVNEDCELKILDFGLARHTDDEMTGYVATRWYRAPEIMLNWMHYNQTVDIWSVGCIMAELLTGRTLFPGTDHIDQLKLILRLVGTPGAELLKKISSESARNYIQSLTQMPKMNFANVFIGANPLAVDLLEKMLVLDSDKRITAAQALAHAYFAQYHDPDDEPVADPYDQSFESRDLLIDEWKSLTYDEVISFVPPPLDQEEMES

Row | SMILES | Activity [1] [%] | Activity [2] [%] | Activity [3] [%] | Activity [4] [%] | Activity [5] [%] | Activity [6] [%] | Activity [7] [%] | Activity [8] [%] | Activity [9] [%] | Activity [10] [%]
1 | Nc1ccccc1Nc1ccc2c(c1)CCc1ccccc1C2=O | 0.2 | 83 | 87 | 98 | 86 | 92 | 97 | 89 | 97 | 98
2 | O=C1c2ccc(Nc3ccc(F)cc3F)cc2CCc2ccc(OC[C@H](O)CO)cc21 [Skepinone-L] | 0.2 | 94 | 100 | 99 | 94 | 85 | 100 | 84 | 100 | 100
